Reference: patent US20200016200A1, “MODULATING CYTOTOXIC CELL LYTIC GRANULE POSITIONING TO PROMOTE DIFFUSE KILLING IN CELLULAR THERAPIES” (Baylor College of Medicine, priority 2016, published 2020)
“Also recorded” adds a separate entry of the source.

Experiments:
[1] = system: GD2 CAR-bearing T cells; test: Live cell confocal microscopy of lytic granule positioning (LysoTracker Red); assay type: cell-based; conditions: ciliobrevin D 50 μM vs DMSO, straight out of culture or 0.5 h post cytokine (IL-7, IL-15) re-addition
Protocol: FIG. 20. […] Live cell confocal microscopy of GD2 CAR-bearing T cells treated with DMSO or ciliobrevin D (50 μM). Lytic granule positioning was tracked using LysoTracker Red. […] The culture medium for GD2 CAR T cells contains IL-7 and IL-15. […] Quantitative analyses of lytic granule distance from the MTOC are shown as a feature of the degree of granule convergence in GD2 CAR-bearing T cells.
(§1) Specifically, the inventors have shown convergence in CD19 CAR T cells, CD19 CAR NK cells, PSCA CAR T cells, GD2 CAR NKT cells, HER2 CART cells, and glypican CAR T cells (FIG. 15A). Using a measurement of mean granule distance from the MTOC, CAR cells have varying degrees of converged lytic granules (FIG. 15B).

[2] = system: CD19 CAR NK cells; test: Standard 4-hour 51Cr cytotoxicity assay, bystander killing; assay type: cell-based; conditions: for more bystander cells lysed compared to DMSO: wildtype Daoy bystanders, Daoy-CD19 inciting targets
Protocol: FIG. 22. Bystander killing with increasing amounts of ciliobrevin D in the presence of CD19 CAR-bearing NK cells. Standard 4-hour ^51Cr cytotoxicity assay of CD19 CAR NK cells treated with ciliobrevin D (12.5, 25, and 50 μM) or DMSO control. Daoy-CD19 cells were used as inciting target cells to activate CD19 CAR-bearing NK cells. Wildtype Daoy cells were used as innocent bystander cells to measure the degree of collateral damage caused by non-directional degranulation.
Similarly, compared to DMSO, ciliobrevin D-treated CD19 CAR NK cells lyse approximately 24%, 39% and 40% more bystander cells at the concentration of 12.5, 25 and 50 μM, respectively (FIG. 22). […] FIG. 23 and FIG. 24 are time-lapse images of videos of control ([…]) and ciliobrevin D-treated ([…]) CD19 CAR T cells. […] In the control group, however, lytic granules converge immediately upon interacting with the target cell and remain tightly clustered until target is killed by the CD19 CAR T cell as indicated by uptake of the SYTOX Blue viability dye.

[3] = system: CD19 CAR-bearing NK cells; test: Live cell confocal microscopy of lytic granule positioning (LysoTracker Red); assay type: cell-based; conditions: ciliobrevin D 50 μM vs DMSO, straight out of culture or 0.5 h post cytokine (IL-2) re-addition
Protocol: FIG. 19. […] Live cell confocal microscopy of CD19 CAR-bearing NK cells treated with DMSO or ciliobrevin D (50 μM). Lytic granule positioning was tracked using LysoTracker Red. […] The culture medium for CD19 CAR NK cells contains IL-2. […] Quantitative analyses of lytic granule distance from the MTOC are shown as a feature of the degree of granule convergence in […].
as §1

[4] = system: NK92 cells; test: Standard 4-hour 51Cr cytotoxicity assay; assay type: cell-based, human; conditions: ciliobrevin D 100 μM vs DMSO
Protocol: (§2) FIGS. 13A-13E. The effect of ciliobrevin D on degranulation and the increase of bystander killing by NK cells. Flow cytometry-based degranulation assay of NK cells treated with ciliobrevin D or DMSO as vehicle control. 721.221 cells were used as targets for YTS cells and K562 cells were used as targets for NK92 and eNK cells. DMSO or ciliobrevin D-treated NK cells were mixed with their respective target cells and co-cultured at 37° C. for 2 hours in the presence of anti-CD107a antibody, GolgiStop (BD) and analyzed using flow cytometry. Numbers in the representative flow cytometry plots indicate the percentage of CD107a positive eNK (13A), YTS (13B), or NK92 (13C) cells. Standard 4-hour 51Cr cytotoxicity assay of NK cells treated with ciliobrevin D (100 μM) or DMSO control. NK resistant Raji cells were used as innocent bystander cells. […] Bystander killing of Raji cells by YTS (13D, red) and NK92 (13E, red) cells both increased with ciliobrevin D treatment. Representative experiments from three independent experiments for YTS and NK92 cells were shown.
(§3) Because directed degranulation with converged granules promoted killing efficiency, ciliobrevin D was used to physically prevent convergence in a cell that had received a convergence signal. It was considered that this would allow us to abrogate the killing efficiency benefit imparted by lytic granule convergence. In order to measure killing of both the target and bystander cells in a single experiment, flow cytometry-based cytotoxicity assays were performed, wherein each cell line was labeled with a unique fluorescent dye in the presence of media containing SYTOX Blue viability indicator dye. […] The viability of YTS ([…]), NK92 (FIG. 14E, 14H) and eNK (FIG. 14F, 14I) was not affected by DMSO or ciliobrevin D treatments. […] To ask if it promoted more collateral damage by NK cells 51Cr-labeled Raji cells were added (to serve as innocent bystanders) along with unlabeled 721.221 or K562 target cells. […] YTS or NK92 cells co-cultured with 51Cr-labeled Raji cells in the absence of 721.221 or K562 were unable to kill Raji cells (FIG. 14J). […] Convergence therefore serves to protect innocent bystander cells in complex cellular environments.
(§4) Standard 51Cr-release assays were performed as previously described (Orange et al., 2011). Where indicated, 51Cr51-labeled target or “bystander” cells were mixed with unlabeled target or “bystander” cells to test the indirect lysis of targets. For ADCC, Raji cells were incubated with 20 μg/ml of rituximab in complete R10 medium for 20 min at 37° C., and washed three times before adding to eNK cells.
(§5) Where applicable, YTS, NK92 and eNK cells were pretreated with […] ciliobrevin D (Millipore) for 30 min then washed. […]

[5] = system: YTS cells; test: Standard 4-hour 51Cr cytotoxicity assay; assay type: cell-based, human; conditions: ciliobrevin D 100 μM vs DMSO
Protocol: as §2, §3, §4, §5

N#CC(C(=O)c1ccc(Cl)cc1Cl)=C1NC(=O)c2ccc(Cl)cc2N1 [ciliobrevin D, 2-(7-chloro-4-oxo-3,4-dihydroquinazolin-2(1H)-ylidene)-3-(2,4-dichlorophenyl)-3-oxopropanenitrile]
stimulation-induced lytic granule convergence [1]: blocks stimulation-induced convergence
stimulation-induced lytic granule convergence ([1]; listed as Ciliobrevin D): dispersed lytic granules
more bystander cells lysed compared to DMSO ([2]; 12.5 μM): approximately 24%
more bystander cells lysed compared to DMSO ([2]; 25 μM): ~39%
more bystander cells lysed compared to DMSO ([2]; 50 μM): ~40%
non-specific lysis of Daoy cells ([2]; 12.5, 25 and 50 μM vs DMSO): dose-dependent increases
stimulation-induced lytic granule convergence [3]: blocks stimulation-induced convergence
stimulation-induced lytic granule convergence ([3]; listed as Ciliobrevin D): dispersed lytic granules
lysis of susceptible target cells (51Cr release) ([4]; NK92 against K562): did not substantively alter total killing; also recorded: not affected
non-specific lysis (bystander killing) of 51Cr-labeled Raji cells ([4]; NK92 with unlabeled K562 targets): more non-specific lysis; also recorded: increased
lysis of susceptible target cells (51Cr release) ([5]; YTS against 721.221): did not substantively alter total killing; also recorded: slightly increased
non-specific lysis (bystander killing) of 51Cr-labeled Raji cells ([5]; YTS with unlabeled 721.221 targets): more non-specific lysis; also recorded: increased
